These compounds were tested against Mcl-1 protein (UniProtKB Q07820) (Homo sapiens (Human), UniProt Q07820) (assay: Inhibition of Mcl-1 by the fluorescence polarisation assay (Example A, Method A)). Conditions: fluorescence polarization assay.
Type: binding
Method in brief: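 Protein (5 nM) and fluorescein-tagged peptide tracer (1 nM) incubated with 11-point compound series for 2 h at room temperature in HEPES/NaCl/Tween 20 buffer, pH 7.4, 5% DMSO. Displacement read as decrease in polarisation; IC50 fitted by 4-parameter logistic, converted to Ki (cKi or eKi).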

Mcl-1 protein, sequence (Q07820 whole entry): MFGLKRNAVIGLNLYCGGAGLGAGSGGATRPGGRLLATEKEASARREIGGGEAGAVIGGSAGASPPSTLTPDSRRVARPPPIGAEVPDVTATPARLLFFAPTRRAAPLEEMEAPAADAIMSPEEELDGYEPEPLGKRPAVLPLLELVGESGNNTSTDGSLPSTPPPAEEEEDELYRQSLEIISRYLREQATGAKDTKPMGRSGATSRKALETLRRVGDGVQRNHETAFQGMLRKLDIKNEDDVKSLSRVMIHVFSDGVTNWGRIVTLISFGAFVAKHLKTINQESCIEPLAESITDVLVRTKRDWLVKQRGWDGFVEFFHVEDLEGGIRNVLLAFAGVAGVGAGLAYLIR

Point of comparison: `COCCOc1cc(N[C@]2(C(=O)O)CC[C@@]3(CC2)C(Br)=Cc2ccccc23)ccn1` [Example 81, (1s,4s)-2′-bromo-4-{[2-(2-methoxyethoxy)pyridin-4-yl]amino}spiro[cyclohexane-1,1′-indene]-4-carboxylic acid], Ki 15500 nM. Against it:
- O=C(O)[C@]1(Nc2cccc(Cl)c2)CC[C@]2(CC1)C(c1ccc(Cl)cc1)=Cc1ccccc12 [Example 298, (1s,4s)-4-(3-chloroanilino)-2′-(4-chlorophenyl)spiro[cyclohexane-1,1′-indene]-4-carboxylic acid] — 14-fold lower, 1110 nM
- CC(C)c1cncnc1OCCCC1Cc2ccccc2[C@]12CC[C@@](Nc1cccc(Cl)c1)(C(=O)O)CC2 (mixture of isomers) [Example 461, (1r,4r)-4-(3-chloroanilino)-2′-(3-{[5-(propan-2-yl)pyrimidin-4-yl]oxy}propyl)-2′,3′-dihydrospiro[cyclohexane-1,1′-indene]-4-carboxylic acid] — 48-fold lower, 325 nM
- COc1cccc(C2Cc3ccccc3[C@]23CC[C@@](Nc2cccc(Cl)c2)(C(=O)O)CC3)c1 (single isomer, unassigned) [Example 272, (1r,4r)-4-(3-chloroanilino)-2′-(3-methoxyphenyl)-2′,3′-dihydrospiro[cyclohexane-1,1′-indene]-4-carboxylic acid] — 120-fold lower, 127 nM
- O=C(O)[C@]1(Nc2cccc(Cl)c2)CC[C@@]2(CC1)c1ccccc1C[C@H]2c1ccc(-c2ccccc2)o1 [Example 356, (1r,2′R,4R)-4-(3-chloroanilino)-2′-(5-phenylfuran-2-yl)-2′,3′-dihydrospiro[cyclohexane-1,1′-indene]-4-carboxylic acid] — 33-fold lower, 476 nM
- O=C(O)[C@]1(Nc2cccc(Cl)c2)CC[C@@]2(CC1)c1ccccc1CC2CCCC1CCCC1 (stereo partly drawn) [Example 153, (1r,4r)-4-(3-chloroanilino)-2′-(3-cyclopentylpropyl)-2′,3′-dihydrospiro[cyclohexane-1,1′-indene]-4-carboxylic acid] — 31-fold lower, 507 nM
- O=C(O)[C@]1(Nc2cccc(Cl)c2)CC[C@@]2(CC1)c1ccccc1CC2c1cccc(OCc2cccnc2)c1 (single isomer, unassigned) [Example 372, (1r,4r)-4-(3-chloroanilino)-2′-{3-[(pyridin-3-yl)methoxy]phenyl}-2′,3′-dihydrospiro[cyclohexane-1,1′-indene]-4-carboxylic acid] — 77-fold lower, 201 nM
- O=C(O)[C@]1(Nc2cccc(Cl)c2)CC[C@]2(CC1)C(CCCCOc1ccccc1)=Cc1ccccc12 [Example 160, (1r,4r)-4-(3-chloroanilino)-2′-(4-phenoxybutyl)spiro[cyclohexane-1,1′-indene]-4-carboxylic acid] — 20-fold lower, 768 nM
- O=C(O)[C@]1(Nc2cccc(Cl)c2)CC[C@@]2(CC1)c1ccccc1CC2[C@H]1C[C@@H]1COc1ccccc1 (relative stereo) [Example 109, (1r,4r)-4-(3-chloroanilino)-2′-[(1R*,2S*)-2-(phenoxymethyl)cyclopropyl]-2′,3′-dihydrospiro[cyclohexane-1,1′-indene]-4-carboxylic acid] — 21-fold lower, 745 nM
- C[C@@H](COc1ccnc(C(F)F)c1)C[C@H]1Cc2ccccc2[C@]12CC[C@@](Nc1cccc(Cl)c1)(C(=O)O)CC2 [Example 581, (1r,2′S,4S)-4-(3-chloroanilino)-2′-[(2R)-3-{[2-(difluoromethyl)pyridin-4-yl]oxy}-2-methylpropyl]-2′,3′-dihydrospiro[cyclohexane-1,1′-indene]-4-carboxylic acid] — 330-fold lower, 47.5 nM
- O=C(O)[C@]1(Nc2cccc(Cl)c2)CC[C@@]2(CC1)c1ccccc1CC2CCCOc1ccnc2c1CCCC2F (stereo partly drawn) [Example 473, (1r,4r)-4-(3-chloroanilino)-2′-{3-[(8-fluoro-5,6,7,8-tetrahydroquinolin-4-yl)oxy]propyl}-2′,3′-dihydrospiro[cyclohexane-1,1′-indene]-4-carboxylic acid] — 190-fold lower, 81.9 nM
- COc1cc(C)cc(C2=Cc3ccccc3[C@]23CC[C@@](Nc2cccc(Cl)c2)(C(=O)O)CC3)c1 [Example 310, (1s,4s)-4-(3-chloroanilino)-2′-(3-methoxy-5-methylphenyl)spiro[cyclohexane-1,1′-indene]-4-carboxylic acid] — 21-fold lower, 721 nM
- O=C(O)[C@]1(Nc2cccc(Cl)c2)CC[C@]2(CC1)C(c1ccc(OCc3ccccc3)cc1)=Cc1ccccc12 [Example 309, (1s,4s)-2′-[4-(benzyloxy)phenyl]-4-(3-chloroanilino)spiro[cyclohexane-1,1′-indene]-4-carboxylic acid] — 21-fold lower, 732 nM
- O=C(O)[C@]1(Nc2cccc(Cl)c2)CC[C@@]2(CC1)c1ccccc1C[C@@H]2c1cccc(OCc2ccccc2)c1 [Example 333, (1r,2′R,4R)-2′-[3-(benzyloxy)phenyl]-4-(3-chloroanilino)-2′,3′-dihydrospiro[cyclohexane-1,1′-indene]-4-carboxylic acid] — within 1.5-fold, 13200 nM
- COc1ccc(C2=Cc3ccccc3[C@]23CC[C@@](Nc2cccc(Cl)c2)(C(=O)O)CC3)c(C)c1 [Example 229, (1s,4s)-4-(3-chloroanilino)-2′-(4-methoxy-2-methylphenyl)spiro[cyclohexane-1,1′-indene]-4-carboxylic acid] — 12-fold lower, 1340 nM
- O=C(O)C1(Nc2cccc(Br)c2)CCC2(CC1)C(c1ccc(Cl)c(Cl)c1)=Cc1ccccc12 (single isomer, unassigned) [Example 233, 4-(3-bromoanilino)-2′-(3,4-dichlorophenyl)spiro[cyclohexane-1,1′-indene]-4-carboxylic acid] — 2.8-fold higher, 44000 nM
- O=C(O)[C@]1(Nc2cccc(Cl)c2)CC[C@@]2(CC1)c1ccccc1CC2CCCc1ccc(Cl)cc1 (stereo partly drawn) [Example 162, (1r,4r)-4-(3-chloroanilino)-2′-[3-(4-chlorophenyl)propyl]-2′,3′-dihydrospiro[cyclohexane-1,1′-indene]-4-carboxylic acid] — 28-fold lower, 558 nM
- O=C(O)[C@]1(Nc2cccc(Cl)c2)CC[C@@]2(CC1)c1ccccc1CC2CCCOc1cccc2c1CCN2 (stereo partly drawn) [Example 470, (1r,4r)-4-(3-chloroanilino)-2′-{3-[(2,3-dihydro-1H-indol-4-yl)oxy]propyl}-2′,3′-dihydrospiro[cyclohexane-1,1′-indene]-4-carboxylic acid] — 84-fold lower, 184 nM
- O=C(O)[C@]1(Nc2cccc(Cl)c2)CC[C@@]2(CC1)c1ccccc1CC2c1cccc2ccoc12 (single isomer, unassigned) [Example 293, (1r,4r)-2′-(1-benzofuran-7-yl)-4-(3-chloroanilino)-2′,3′-dihydrospiro[cyclohexane-1,1′-indene]-4-carboxylic acid] — 31-fold lower, 499 nM
- CCN1c2ccccc2[C@]2(CC[C@](Nc3cccc(Br)c3)(C(=O)O)CC2)C1=O [Example 2, (1r,4r)-4-(3-bromoanilino)-1′-ethyl-2′-oxo-1′,2′-dihydrospiro[cyclohexane-1,3′-indole]-4-carboxylic acid] — 2-fold lower, 7670 nM
- COc1ccc(C2=Cc3ccccc3[C@]23CC[C@@](Nc2cccc(Cl)c2)(C(=O)O)CC3)cc1Cl [Example 227, (1s,4s)-4-(3-chloroanilino)-2′-(3-chloro-4-methoxyphenyl)spiro[cyclohexane-1,1′-indene]-4-carboxylic acid] — 13-fold lower, 1190 nM
- COc1ccc([C@@H]2Cc3ccccc3[C@]23CC[C@@](Nc2cccc(Br)c2)(C(=O)O)CC3)cc1 [Example 217, (1r,2′S,4S)-4-(3-bromoanilino)-2′-(4-methoxyphenyl)-2′,3′-dihydrospiro[cyclohexane-1,1′-indene]-4-carboxylic acid] — 32-fold lower, 484 nM
- O=C(O)[C@]1(Nc2cccc(Cl)c2)CC[C@]2(CC1)C(c1ccc3occc3c1)=Cc1ccccc12 [Example 247, (1s,4s)-2′-(1-benzofuran-5-yl)-4-(3-chloroanilino)spiro[cyclohexane-1,1′-indene]-4-carboxylic acid] — 13-fold lower, 1220 nM
- O=C(O)[C@]1(Nc2cccc(Cl)c2)CC[C@@]2(CC1)c1ccccc1CC2CCCOc1ccccc1Cl (stereo partly drawn) [Example 431, (1r,4r)-4-(3-chloroanilino)-2′-[3-(2-chlorophenoxy)propyl]-2′,3′-dihydrospiro[cyclohexane-1,1′-indene]-4-carboxylic acid] — 110-fold lower, 138 nM
- O=C(O)[C@]1(Nc2cccc(Cl)c2)CC[C@]2(CC1)C(C#CCCOc1ccnc3ccsc13)=Cc1ccccc12 [Example 195, (1s,4s)-4-(3-chloroanilino)-2′-{4-[(thieno[3,2-b]pyridin-7-yl)oxy]but-1-yn-1-yl}spiro[cyclohexane-1,1′-indene]-4-carboxylic acid] — 58-fold lower, 266 nM
- O=C(O)[C@]1(Nc2cccc(Cl)c2)CC[C@]2(CC1)C(C1CN(Cc3c(F)ccc(F)c3F)C1)=Cc1ccccc12 [Example 99, (1r,4r)-4-(3-chloroanilino)-2′-{1-[(2,3,6-trifluorophenyl)methyl]azetidin-3-yl}spiro[cyclohexane-1,1′-indene]-4-carboxylic acid] — 5.4-fold lower, 2860 nM
- CC1(C)[C@H]2C=C(C3=Cc4ccccc4[C@]34CC[C@@](Nc3cccc(Cl)c3)(C(=O)O)CC4)[C@]1(C)CC2 [Example 276, (1s,4S)-4-(3-chloroanilino)-2′-[(1R,4R)-1,7,7-trimethylbicyclo[2.2.1]hept-2-en-2-yl]spiro[cyclohexane-1,1′-indene]-4-carboxylic acid] — 2.4-fold higher, 36700 nM
- O=C(O)[C@]1(Nc2cccc(Cl)c2)CC[C@@]2(CC1)c1ccccc1CC2C1CCCC1 (single isomer, unassigned) [Example 91, (1r,4r)-4-(3-chloroanilino)-2′-cyclopentyl-2′,3′-dihydrospiro[cyclohexane-1,1′-indene]-4-carboxylic acid] — 11-fold lower, 1430 nM
- O=C(O)[C@]1(Nc2cccc(Cl)c2)CC[C@@]2(CC1)c1ccccc1CC2CCCOc1ccnc2ccoc12 (stereo partly drawn) [Example 447, (1r,4r)-4-(3-chloroanilino)-2′-{3-[(furo[3,2-b]pyridin-7-yl)oxy]propyl}-2′,3′-dihydrospiro[cyclohexane-1,1′-indene]-4-carboxylic acid] — 120-fold lower, 127 nM
- O=C(O)[C@]1(Nc2cccc(Cl)c2)CC[C@]2(CC1)C(c1cc3cc(-c4ccncc4)ccc3o1)=Cc1ccccc12 [Example 375, (1s,4s)-4-(3-chloroanilino)-2′-[5-(pyridin-4-yl)-1-benzofuran-2-yl]spiro[cyclohexane-1,1′-indene]-4-carboxylic acid] — 3.2-fold lower, 4790 nM

Reference: patent publication US20240150293A1, “SPIROCYCLOHEXANE DERIVATIVES, PHARMACEUTICAL COMPOSITIONS CONTAINING THEM AND THEIR USES AS ANTI-APOPTOTIC INHIBITORS” (LES LABORATOIRES SERVIER, priority 2021, published 2024)
